Measurements published in patent US20260216207A1, “7-CARBONYLSTAUROSPORINE DERIVATIVE, PREPARATION METHOD THEREFOR, AND USE THEREOF” (HANGZHOU KEXING BIOCHEM. CO., LTD., priority 2023, published 2026).

Key:
Format in all cases: biochemical
FLT3 = biological target: T1, FLT3 (Homo sapiens, UniProt P36888); assay: HTRF KinEASE kinase assay, FLT3 (kinase selectivity); settings: HTRF KinEASE kit, 3 duplicate wells; read-out: FLT3 IC50
T1 sequence (P36888 27-993): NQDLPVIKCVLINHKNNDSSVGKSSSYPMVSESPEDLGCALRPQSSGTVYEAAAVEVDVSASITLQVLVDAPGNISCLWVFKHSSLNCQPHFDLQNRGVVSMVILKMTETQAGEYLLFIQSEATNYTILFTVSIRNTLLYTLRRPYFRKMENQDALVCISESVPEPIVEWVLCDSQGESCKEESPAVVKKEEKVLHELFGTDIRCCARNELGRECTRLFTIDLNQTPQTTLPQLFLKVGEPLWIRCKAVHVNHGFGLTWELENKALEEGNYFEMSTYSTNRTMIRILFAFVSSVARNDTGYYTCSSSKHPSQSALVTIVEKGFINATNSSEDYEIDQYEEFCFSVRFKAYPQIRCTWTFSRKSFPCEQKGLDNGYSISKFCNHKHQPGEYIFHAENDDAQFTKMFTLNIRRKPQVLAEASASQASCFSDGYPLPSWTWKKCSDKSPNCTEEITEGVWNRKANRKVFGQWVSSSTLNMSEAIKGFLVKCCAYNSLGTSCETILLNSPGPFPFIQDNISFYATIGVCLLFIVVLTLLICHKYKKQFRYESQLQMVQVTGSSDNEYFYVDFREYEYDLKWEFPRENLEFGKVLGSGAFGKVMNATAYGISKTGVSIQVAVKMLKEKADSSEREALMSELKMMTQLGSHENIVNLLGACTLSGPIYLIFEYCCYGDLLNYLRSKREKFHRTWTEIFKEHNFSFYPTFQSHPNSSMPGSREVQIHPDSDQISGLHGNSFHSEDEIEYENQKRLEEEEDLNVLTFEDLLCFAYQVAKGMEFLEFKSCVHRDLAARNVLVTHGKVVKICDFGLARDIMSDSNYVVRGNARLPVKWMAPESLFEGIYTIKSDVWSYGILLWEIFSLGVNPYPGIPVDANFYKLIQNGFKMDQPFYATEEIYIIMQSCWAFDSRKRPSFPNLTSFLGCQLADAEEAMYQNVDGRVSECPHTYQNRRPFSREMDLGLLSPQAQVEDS
Method: (§1) Inhibitory activities against PIM-1, TRKA, TRKB, FLT3, PKCδ, PKCε, PKCη, PAK4, PLK1, ROCK2, and IKKβ kinases were all determined using an HTRF®KinEASE™ kinase assay kit based on a time-resolved fluorescence technology. 7-carbonylstaurosporine (7OSTA) and TP-3654 were used as positive controls, and 3 duplicate wells were set in parallel. […] A signal ratio was calculated as F2/F1×10000, and then an IC50 value was calculated using Graphpad Prism 8 software.

PLK1 = PLK1 (Homo sapiens, UniProt P53350); assay: HTRF KinEASE kinase assay, PLK1 (kinase selectivity); settings: HTRF KinEASE kit, 3 duplicate wells; read-out: PLK1 IC50
PLK1, sequence (P53350 whole entry, species assumed): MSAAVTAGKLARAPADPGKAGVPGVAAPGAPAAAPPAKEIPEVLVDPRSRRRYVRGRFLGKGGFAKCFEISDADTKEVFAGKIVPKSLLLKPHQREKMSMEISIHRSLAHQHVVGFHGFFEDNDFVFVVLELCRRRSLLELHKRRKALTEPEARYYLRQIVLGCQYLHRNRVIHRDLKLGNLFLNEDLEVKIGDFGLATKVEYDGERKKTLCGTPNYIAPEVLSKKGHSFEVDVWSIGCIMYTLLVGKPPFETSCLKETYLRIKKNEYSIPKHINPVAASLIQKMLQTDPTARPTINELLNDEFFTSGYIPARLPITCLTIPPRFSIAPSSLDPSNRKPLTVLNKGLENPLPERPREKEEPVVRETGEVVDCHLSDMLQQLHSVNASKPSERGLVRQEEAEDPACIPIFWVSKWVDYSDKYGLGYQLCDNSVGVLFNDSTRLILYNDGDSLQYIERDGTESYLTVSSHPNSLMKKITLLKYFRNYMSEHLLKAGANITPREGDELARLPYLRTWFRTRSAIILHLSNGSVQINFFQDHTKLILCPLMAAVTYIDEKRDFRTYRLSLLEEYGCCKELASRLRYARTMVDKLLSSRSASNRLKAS
Method: as §1

PKCε = biological target: T2, PKCε (Homo sapiens, UniProt Q02156); assay: HTRF KinEASE kinase assay, PKCε (kinase selectivity); settings: HTRF KinEASE kit, 3 duplicate wells; read-out: PKCε IC50
T2 sequence (Q02156 1-737): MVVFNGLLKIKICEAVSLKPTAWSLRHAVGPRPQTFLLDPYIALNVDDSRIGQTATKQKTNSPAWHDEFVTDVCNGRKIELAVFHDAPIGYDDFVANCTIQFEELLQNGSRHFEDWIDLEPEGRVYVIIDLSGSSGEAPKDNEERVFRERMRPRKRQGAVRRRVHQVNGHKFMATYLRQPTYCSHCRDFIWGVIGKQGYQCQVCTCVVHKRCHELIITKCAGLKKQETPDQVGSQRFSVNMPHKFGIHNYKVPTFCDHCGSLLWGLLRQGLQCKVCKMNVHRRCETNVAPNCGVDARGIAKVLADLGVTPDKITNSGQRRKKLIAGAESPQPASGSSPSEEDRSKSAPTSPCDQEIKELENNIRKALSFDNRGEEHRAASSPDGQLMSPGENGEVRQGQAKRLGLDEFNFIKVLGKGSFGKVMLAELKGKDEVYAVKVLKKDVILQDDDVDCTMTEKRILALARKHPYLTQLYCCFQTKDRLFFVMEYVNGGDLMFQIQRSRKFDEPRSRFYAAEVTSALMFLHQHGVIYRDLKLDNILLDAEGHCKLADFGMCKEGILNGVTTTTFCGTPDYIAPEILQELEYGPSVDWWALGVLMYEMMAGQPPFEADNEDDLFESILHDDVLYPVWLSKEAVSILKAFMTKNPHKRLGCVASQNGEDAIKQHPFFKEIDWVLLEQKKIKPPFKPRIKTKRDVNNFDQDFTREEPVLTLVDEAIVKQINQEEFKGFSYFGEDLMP
Method: as §1

IC50 (FLT3): 5.3 nM | IC50 (PLK1): 421 nM | IC50 (PKCε): 69 nM
SMILES: CO[C@@H]1[C@H](N(C)C(=O)CCC(=O)NO)C[C@H]2O[C@]1(C)n1c3ccccc3c3c4c(c5c6ccccc6n2c5c31)C(=O)NC4=O [Compound 17]
